Measured values from patent US5530157A, “Anti-inflammatory benzoic acid derivatives” (Scios Nova Inc., priority 1995, dated 1996).

Test system: human umbilical vein endothelial cells
Assay: INF-γ HUVEC assay: adherence of PMN to human umbilical vein endothelial cells
Format: cell-based
Conditions: HUVECs with INF-γ 1 unit/mL 20 hrs, PMN activated with 50 ng/mL TNF, read-out: IC50 to inhibit adhesion, IFN-γ HUVECS
Text: (§1) Several in vitro assays were employed to determine the ability of compounds of the invention to function as anti-inflammatory agents. One group of assays measured the ability of the compounds to inhibit adherence of polymorphonuclear neutrophils to serum coated wells (in the presence of either TNF-α or PAF) or to human umbilical vein endothelial cells (in the presence of INF-γ). Another group of assays measured the ability of the compounds to inhibit the release of elastase or superoxide from activated neutrophils. These assays were performed in the following manner.
(§2) Isolation of PMN: Blood was drawn into syringes containing heparin (1 U/mL), from human volunteers (free of any medication for at least 48 hrs). 30 mL of blood was layered over a gradient of 10 mL 1.077 g/mL Histpaque (Sigma, St. Louis, Mo.), and centrifuged at room temperature, 400×g for 20 min. All subsequent manipulations were carried out at room temperature, with endotoxin free reagents, and using polypropylene pipettes and tubes, to prevent activation of the PMN. The pinkish PMN layer immediately above the RBC was collected and washed 2× with Hank's buffered salt solution with calcium and magnesium, 0.2% glucose, and 10 mM HEPES, pH 7.2 (HBSS++) by centrifugation at 400×g for 10 min. Pellets were suspended in 8 mL 0.9% NaCl, and RBC lysed by the addition of 24 mL water for 40 sec, followed by the addition of 8 mL of 3.6% NaCl. After centrifugation at 200×g for 8 min, RBC ghosts were aspirated from the top of the PMN pellet, and cells washed with HBSS++. PMN adherence to protein substrates: 96 well tissue culture plates were coated with 10% pooled human serum (North American Biological,;, Miami, Fla.) in phosphate buffered saline (PBS) for 1 hr at 37° C., followed by washing 3× with PBS. Test compounds were prepared in DMSO as 100× stocks. PMN (4×10^6 /mL) were preincubated with test compounds for 10 min at 37° C. in serum-coated wells. Tumor necrosis factor (TNF-α) was added to 3 nM or platelet aggregation facor (PAF) to 1 μM, and adherence was carried out for 20 or 10 min, respectively. Nonadherent cells were aspirated, and wells washed two times with warm PBS with calcium and magnesium, with blotting of the inverted plate following each aspiration. Adherent PMN were quantitated using a BCA protein assay (Pierce, Rockford, Ill.).
INF-γHUVEC Assay. Primary human umbilical vein endothelial cells (HUVECs) from Clonetics Corp. (San Diego, Calif.) were seeded at 20,000 cells per wall in a 96 well tissue culture plate that was coated with fibronectin, for 45 min and then twice rinsed with phosphate buffered saline. To the culture media (M199, 80%; FBS, 20%; […] endothelial cell growth factor (Maciag et all, Proc. Natl. Acad. Sci. USA (1979) 76(11):5674-5678), 0.1 mg/mL heparin; 5% CO2; 37° C.) was added INF-γ (R&D Systems) at 1 unit/mL for 20 hrs. Isolated PMNs were loaded with the fluorescent dye BCECF AM (Molecular Probes) by incubating 1×10^7 cells/mL in HBSS with 4 μM dye for 30 min at 37° C. The PMNs were incubated with test compound for 10 min at 37° C., then activated with 50 ng/mL TNF and immediately added to the HUVECs which had been rinsed twice with HBSS+1% human serum. The co-culture plate was incubated at 37° C. for 20 min followed by gentle washing (twice) with HBSS+1% human serum. The extent of adherence was assessed by measuring the amount of fluorescence (485-535 nm filter) in each well with a fluorescence plate reader (Idexx).

Point of comparison: `O=C(O)c1ccc(CCc2ccccc2-c2ccccc2)cc1` [NPC 18731, 4-[2-(biphenyl)ethyl]benzoic acid], IC50 28 µM. Against it:
- O=C(O)c1ccc(C=Cc2ccccc2Oc2ccccc2)cc1 [NPC 18801, 2'-phenoxy-4-stilbenecarboxylic acid] — 1.9-fold higher, 52.4 µM

Test system: polymorphonuclear neutrophils
Assay: Adherence of PMN to serum coated wells, PAF
Format: cell-based
Conditions: Homo sapiens, Polymorphonuclear neutrophil, 10 min, PAF 1 μM, read-out: IC50 to inhibit adhesion, PAF serum
Text: as §1, §2

Point of comparison: `O=C(O)c1ccc(CCc2ccccc2-c2ccccc2)cc1` [NPC 18731, 4-[2-(biphenyl)ethyl]benzoic acid], IC50 6.5 µM. Against it:
- O=C(O)c1ccc(C=Cc2ccccc2Oc2ccccc2)cc1 [NPC 18801, 2'-phenoxy-4-stilbenecarboxylic acid] — 7.6-fold lower, 0.86 µM

Test system: neutrophils
Assay: Elastase release from neutrophils, PAF
Format: cell-based
Conditions: Homo sapiens, Neutrophil; PAF 20 nM, cytochalasin b; read-out: IC50 to inhibit elastase release, PAF/ER
Text: as §1
(§3) Elastase release. Neutrophils (5×10^6 /ml in HBSS) were preincubated for 5 min at 37° C. with cytochalasin b (5 μg/ml). Experiments were performed in microtubes (96 per rack) to which were added the cell suspension, test compound (50 nM-500 μM), and one of several activators (fMLP, 200 nM, C5a, 24 nM; PAF, 20nM). After incubation (30 min, 37° C.) the tubes were centrifuged (1 min, 1500 rpm) and the supernatants assayed for elastase activity according to the following protocol:
(§4) Specifically, 10 μl of purified human neutrophil elastase standard or of sample was added to 70 μl or 0.1M Tris pH 7.5, 0.5% Brij detergent and 10 μl or 5 mM elastase substrate (methoxysuccinyl-alanyl-alanyl-prolyl-valyl paranitroanilide) in a 96 well microliter plate. Plates were indubated for 60 min at 37° C. and absorbance was read at 410 nm on a microplate reader. Elastase activity was quantitated relative to standards.

Point of comparison: `O=C(O)c1ccc(CCc2ccccc2-c2ccccc2)cc1` [NPC 18731, 4-[2-(biphenyl)ethyl]benzoic acid], IC50 19.9 µM. Against it:
- O=C(O)c1ccc(C=Cc2ccccc2Oc2ccccc2)cc1 [NPC 18801, 2'-phenoxy-4-stilbenecarboxylic acid] — 33-fold lower, 0.6 µM

Test system: neutrophil accumulation in the cutaneous Reverse Passive Arthus reaction
Assay: Neutrophil accumulation in the cutaneous Reverse Passive Arthus reaction in rats
Format: in vivo, Male Sprague Dawley rats
Conditions: Neutrophil, ip, 4 h; rat, i.p., Reverse Passive Arthus; read-out: ID50 (the source's name)
Experimental: (§5) Two in vivo models of inflammation were used to assess the anti-inflammatory activity of compounds of the invention. One model measures neutrophil accumulation in thioglycollate-induced peritonitis in mice. The other measures neutrophil accumulation in the cutaneous Reverse Passive Arthus reaction in rats. These assays were carried out as follows.
Male Sprague Dawley rats were treated with test compounds by intraperitoneal injection of 1.4 mg/kg in 1% Tween, pH 9.0 vehicle. After 1 hr, animals were lightly anesthetized with 2% isoflurane, v/v, injected by intravenous route with 1 ml of 5 mg/ml human serum albumin, immediately follwed by intracutaneous administration of 75 μl of a solution of 4 mg/ml of goat anti-human serum albumin. Animals were anesthetized 4 hrs after antigen-antibody treatment. Punch biopsies of the dorsal injection sites were performed with one biopsy weighed for wet/dry weight ratio determination. The remaining two skin biopsies were used for measuring myeloperoxidase content and were minced, weighed and homogenized for 30 sec in 20 mM phosphate buffer (pH 7.4). After centrifugation (20 min, 6000×g, 4° C.) the supernatant was decanted and the pellet resuspended in 50 mM phosphate buffer (pH 6.0) containing 0.5% hexadecyltrimethylammonium bromide. After three freeze/thaw cycles, the pellet was centrifuged (15 min, 20000×g, 4° C.) and 100 μl aliquots were added to 2.9 ml of assay buffer (50 mM phosphate buffer, 0.167 mg/ml o-dianiside, 0.05% H2 O2, pH 6.0). Absorbance at 460 nm was measured at 15 min. Results shown in Table IV were calculated as absorbance units/g dry weight.

In the case of `O=C(O)c1ccc(CCc2ccccc2-c2ccccc2)cc1` [NPC 18731, 4-[2-(biphenyl)ethyl]benzoic acid], the ED50 is reported as 0.1 mg/kg.

Same assay, conditions: rat, i.p., 1.4 mg/kg, n = 4

Point of comparison: `O=C(O)c1ccc(C=Cc2ccccc2Oc2ccccc2)cc1` [NPC 18801, 2'-phenoxy-4-stilbenecarboxylic acid], “Reverse Passive Arthus % Inhibition” value 3%. Against it:
- O=C(O)c1ccc(CCc2ccccc2-c2ccccc2)cc1 [NPC 18731, 4-[2-(biphenyl)ethyl]benzoic acid] — higher, 40%

Test system: neutrophils
Assay: Superoxide production by PMN, fMLP
Format: cell-based
Conditions: Homo sapiens, Neutrophil; fMLP 300 nM, TNF preincubation; read-out: IC50 to inhibit superoxide production, fMLP/O2
Text: as §1
(§6) Superoxide production. Superoxide production by PMN was measured as the superoxide dismutase (SOD)-inhibitable reduction of ferricytochrome c. […] Therefore, subsequent experiments were performed in the presence of cytochrome c only. In all cases, experiments were carried out in 96 well plates. Before the addition of cells, plates were coated by incubating each well with 200 μl of 10% human serum for 1 h in 37° C. Plates were then washed several times with PBS containing 10 mM CaCl2 and MgCl2. Neutrophils, resuspended in Hank's balanced salt solution (HBSS) to a final concentration of 4×10^6 cells/ml, were preincubated with TNF (10 ng/ml) for 10 min at 37° C. in the presence of cytochrome c (75 μm). Experiments were then performed with 100 μl of this cell suspension added to each well, followed by the addition of 10 μl of an aqueous dilution of test compound (50 nm-[…]). Immediately after the addition of test compound, a 10 μl aliquot of activators (fMLP, 300 nM; PAF, 20 nM; C5a, 5 μg/ml) was added to each well. Plates were immediately transferred to a preheated Thermomax kinetic microplate reader and the change in absorbance at […] was recorded over a 3 min period.

For `O=C(O)c1ccc(C=Cc2ccccc2Oc2ccccc2)cc1` [NPC 18801, 2'-phenoxy-4-stilbenecarboxylic acid], the IC50 was 0.15 µM.

Test system: neutrophils
Assay: Superoxide production by PMN, PAF
Format: cell-based
Conditions: Homo sapiens, Neutrophil; PAF 20 nM, TNF preincubation; read-out: IC50 to inhibit superoxide production, PAF/O2
Text: as §1, §6

With `O=C(O)c1ccc(C=Cc2ccccc2Oc2ccccc2)cc1` [NPC 18801, 2'-phenoxy-4-stilbenecarboxylic acid] the IC50 was 0.52 µM.

Test system: polymorphonuclear neutrophils
Assay: Adherence of PMN to serum coated wells, TNF-α
Format: cell-based
Conditions: Homo sapiens, Polymorphonuclear neutrophil, 20 min, TNF-α 3 nM, read-out: IC50 to inhibit adhesion, TNF-α serum
Text: as §1, §2

Point of comparison: `O=C(O)c1ccc(CCc2ccccc2-c2ccccc2)cc1` [NPC 18731, 4-[2-(biphenyl)ethyl]benzoic acid], IC50 6.4 µM. Against it:
- O=C(O)c1ccc(C=Cc2ccccc2Oc2ccccc2)cc1 [NPC 18801, 2'-phenoxy-4-stilbenecarboxylic acid] — within 1.5-fold, 6.9 µM

Test system: neutrophils
Assay: Elastase release from neutrophils, fMLP
Format: cell-based
Conditions: Homo sapiens, Neutrophil; fMLP 200 nM, cytochalasin b; read-out: IC50 to inhibit elastase release, fMLP/ER
Text: as §1, §3, §4

Point of comparison: `O=C(O)c1ccc(CCc2ccccc2-c2ccccc2)cc1` [NPC 18731, 4-[2-(biphenyl)ethyl]benzoic acid], IC50 8.7 µM. Against it:
- O=C(O)c1ccc(C=Cc2ccccc2Oc2ccccc2)cc1 [NPC 18801, 2'-phenoxy-4-stilbenecarboxylic acid] — within 1.5-fold, 7.5 µM

Test system: neutrophil accumulation in thioglycollate-induced peritonitis
Assay: Neutrophil accumulation in thioglycollate-induced peritonitis in the mouse
Format: in vivo, Male CF-1 mice
Conditions: Neutrophil, iv; mouse, i.v., thioglycollate-induced peritonitis, 4 hrs; read-out: ED50
Experimental: as §5
Male CF-1 mice were pretreated with individual test compound (4-6 mice per compound) 10 min prior to thioglycollate treatment. Test compounds at various doses, solubilized in 1% Tween, pH 9.0, were injected into the tail vein. Thioglycollate (4% Brewer's thioglycollate broth in water) was administered intraperitoneally in 1 ml volume. Peritoneal lavages, performed 4 hrs following thioglycollate treatment, involved injecting 5 ml of Dulbecco's phosphate buffered saline with 0.1% bovine serum albumin and 10 units/ml heparin into the peritoneal cavity, massaging the peritoneum, and then removing fluid through peritoneal aspiration. The lavage fluid was centrifuged, red blood cells lysed with water, cells were resuspended in Hank's balanced salt solution, and leukocytes were counted with a modified Neubauer hemacytometer. Leukocyte preparations (cytospin slides) were differentially stained with a Giemsa stain. Neutrophil accumulation expressed as a percent of control was calculated after the subtraction of baseline neutrophils from all treatement groups (see Table III).

Point of comparison: `O=C(O)c1ccc(CCc2ccccc2-c2ccccc2)cc1` [NPC 18731, 4-[2-(biphenyl)ethyl]benzoic acid], ED50 4 mg/kg. Against it:
- O=C(O)c1ccc(C=Cc2ccccc2Oc2ccccc2)cc1 [NPC 18801, 2'-phenoxy-4-stilbenecarboxylic acid] — not separable, < 10 mg/kg

Same assay, conditions: mouse, i.v., 3 mg/kg, 4 hrs

Point of comparison: `O=C(O)c1ccc(CCc2ccccc2-c2ccccc2)cc1` [NPC 18731, 4-[2-(biphenyl)ethyl]benzoic acid], “% Inhibition of neutrophil accumulation” value 22%. Against it:
- O=C(O)c1ccc(C=Cc2ccccc2Oc2ccccc2)cc1 [NPC 18801, 2'-phenoxy-4-stilbenecarboxylic acid] — higher, 36%

Same assay, conditions: mouse, i.v., 10 mg/kg, 4 hrs

Point of comparison: `O=C(O)c1ccc(CCc2ccccc2-c2ccccc2)cc1` [NPC 18731, 4-[2-(biphenyl)ethyl]benzoic acid], “% Inhibition of neutrophil accumulation” value 44%. Against it:
- O=C(O)c1ccc(C=Cc2ccccc2Oc2ccccc2)cc1 [NPC 18801, 2'-phenoxy-4-stilbenecarboxylic acid] — higher, 65%

Same assay, conditions: mouse, i.v., 30 mg/kg, 4 hrs

Point of comparison: `O=C(O)c1ccc(C=Cc2ccccc2Oc2ccccc2)cc1` [NPC 18801, 2'-phenoxy-4-stilbenecarboxylic acid], “% Inhibition of neutrophil accumulation” value 65%. Against it:
- O=C(O)c1ccc(CCc2ccccc2-c2ccccc2)cc1 [NPC 18731, 4-[2-(biphenyl)ethyl]benzoic acid] — lower, 59%

Same assay, conditions: mouse, i.v., 60 mg/kg, 4 hrs

With `O=C(O)c1ccc(CCc2ccccc2-c2ccccc2)cc1` [NPC 18731, 4-[2-(biphenyl)ethyl]benzoic acid] the “% Inhibition of neutrophil accumulation” value was 59%.
